Laboratory results as given in US6423707B1, “Nitroimidazole ester analogues and therapeutic applications” (California Pacific Medical Center, priority 2000, dated 2002).
≈ marks a conversion by molar mass, not a printed value. Read-outs that look alike come from different tables or passages of the source.

Tests used:
[1] = tested on: metronidazole resistant H. pylori isolate (ATCC strain 43579); assay: Helicobacter pylori microbicidal assay (Example 12); assay type: cell-based; conditions: for MBC: Helicobacter pylori
[2] = tested on: Ohio State university Helicobactor pylori isolate working seed lot #061697; assay: microbe, parasite or virus in culture; assay type: cell-based; conditions: Helicobacter pylori, 72 h, read-out: MBC OSU Isolate 061697
[3] = tested on: Helicobactor pylori ATCC strain 43579; assay: microbe, parasite or virus in culture; assay type: cell-based; conditions: Helicobacter pylori, ATCC43579, 72 h, read-out: MBC H. Pylori 43579
[4] = tested on: another H pylori isolate (a virulent human isolate used in the germ-free pig model); assay: microbe, parasite or virus in culture; assay type: cell-based; conditions: Helicobacter pylori
[5] = ATCC43579, 72 h, read-out: MBC (Minimal Bactericidal Concentration), lowest concentration that killed 100% of the H. pylori working solution, ATCC strain 43579, metronidazole-resistant, 72 hours
[6] = relative to positive control (=1), ATCC strain 43579
[7] = ATCC43579, 72 h, read-out: MBC (Minimal Bactericidal Concentration)
[8] = ATCC43579, lowest concentration that killed 100% of the H. pylori working solution, ATCC strain 43579, metronidazole-resistant, 72 hours, read-out: MBC (Minimal Bactericidal Concentration)

Row | Compound | Bactericidal Activity Index [1] | Bactericidal Activity Index [1, 6] | MBC [2] | MBC [3] | further results
1 | 2-Methyl-5-nitro-1H-imidazole-1-ethyl 9,10-dihydro-9,10-dioxo-2-anthracenecarboxylate [Formula 9] | 7.4 |  |  |  | MBC (Minimal Bactericidal Concentration) [1]: 12 µg/mL
2 | 2-Methyl-5-nitro-1H-imidazole-1-ethyl 9-oxo-9H-thioxanthene-3-carboxylate [Formula 6] | 6.4 |  |  |  | MBC (Minimal Bactericidal Concentration) [1]: 14 µg/mL
3 | 2-methyl-5-nitro-1H-imidazole-1-ethyl 1-ethyl-1,4-dihydro-7-methyl-4-oxo-1,8-naphthyridine-3-carboxylate [Formula 10] | 12.7 |  |  |  | MBC (Minimal Bactericidal Concentration) [1]: 7 µg/mL
4 | Cc1ncc([N+](=O)[O-])n1CCOC(=O)c1cccnc1 [Formula 1C, 2-Methyl-5-nitro-1H-imidazole-1-ethyl Nicotinate] |  | 17.8 | 22.3 µg/mL | 22.3 µg/mL | MBC [1, 5]: 4 µg/mL; MBC (Minimal Bactericidal Concentration) ([1]; lowest concentration that killed 100% of the H. pylori working solution, ATCC strain 43579, metronidazole-resistant, 72 hours): 5 µg/mL
5 | Cc1ncc([N+](=O)[O-])n1CCOC(=O)c1ccc([N+](=O)[O-])o1 [Formula 2C, 2-Methyl-5-nitro-1H-imidazole-1-ethyl 5-nitro-2-furoate] | 29.7 |  | 12.6 µg/mL | 12.6 µg/mL | MBC [1, 7]: 3 µg/mL; melting point: 150 to 152 °C
6 | Cc1ncc([N+](=O)[O-])n1CCOC(=O)c1cc(C(=O)OCCn2c([N+](=O)[O-])cnc2C)cc([N+](=O)[O-])c1 [Formula 3C, Di (2-methyl-5-nitro-1H-imidazole-1-ethyl) 5-nitro-1,3-benzenedicarboxylate] | 29.7 |  | 19.8 µg/mL | 19.8 µg/mL | MBC [1, 7]: 3 µg/mL
7 | Cc1ncc([N+](=O)[O-])n1CCOC(=O)c1cc(-c2ccccc2)nc2ccccc12 [Formula 4C, 2-Methyl-5-nitro-1H-imidazole-1-ethyl 2-phenyl-4-quinolinecarboxylate] |  | 45 | 20.5 µg/mL | 10.3 µg/mL | MBC [1, 5]: 2 µg/mL; MBC [4]: 10.2 µg/mL; melting point: 122 to 124 °C
8 | Cc1ncc([N+](=O)[O-])n1CCOC(=O)N1c2ccccc2Sc2ccccc21 [Formula 5C, 2-Methyl-5-nitro-1H-imidazole-1-ethyl phenothiazine-10-carboxylate] |  | 44.5 | 10.3 µg/mL | 10.3 µg/mL | MBC [1, 5]: 2 µg/mL; MBC [4]: 10.2 µg/mL
9 | Cc1ncc([N+](=O)[O-])n1CCOC(=O)c1cc(=O)c2ccccc2o1 [Formula 7, 2-Methyl-5-nitro-1H-imidazole-1-ethyl 4-oxo-4H-1-benzopyran-2-carboxylate] |  | 8.9 |  |  | MBC [1, 8]: 10 µg/mL; melting point: 210 to 212 °C (dec.)
10 | Cc1ncc([N+](=O)[O-])n1CCOC(=O)c1ccc(-c2ccc(Cl)cc2[N+](=O)[O-])o1 [Formula 13] |  |  |  |  | MBC [1, 7]: > 97 µg/mL
11 | CCn1cc(C(=O)OCCn2c([N+](=O)[O-])cnc2C)c(=O)c2ccc(C)nc21 [Formula 15] |  | 8.9 |  |  | MBC [1, 8]: 15 µg/mL
12 | Cc1ncc([N+](=O)[O-])n1CCO [Positive Control, metronidazole, reference compound] |  | 1 |  |  | MBC [1, 8]: 89 µg/mL (≈ 520 µM)
